Measurements: US12084472B2 (Ardelyx, Inc., priority 2015, dated 2024)

These molecules were tested against T1, human TGR5 (Homo sapiens, UniProt Q8TDU6) (assay: Cell-based TGR5 assay (cAMP generation, HTRF)). Conditions: HEK293 cells stably transfected with human TGR5; cAMP by HTRF; 30 minutes at 37° C.; read-out: pEC50 Human TGR5 (converted).
T1 construct: expressed in transfected cells; host or cells: HEK293
T1 sequence (Q8TDU6 1-330): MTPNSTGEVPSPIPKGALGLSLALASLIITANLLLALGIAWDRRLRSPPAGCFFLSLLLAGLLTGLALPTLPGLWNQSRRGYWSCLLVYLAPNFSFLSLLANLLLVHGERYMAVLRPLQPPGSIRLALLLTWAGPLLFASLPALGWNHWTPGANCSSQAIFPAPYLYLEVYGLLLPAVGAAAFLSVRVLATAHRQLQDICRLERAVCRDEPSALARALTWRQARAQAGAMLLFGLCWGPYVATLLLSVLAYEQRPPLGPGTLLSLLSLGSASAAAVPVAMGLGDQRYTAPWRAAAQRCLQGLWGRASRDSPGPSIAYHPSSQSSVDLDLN
Procedure: A primary cell-based assay utilized HEK293 cells stably transfected with a gene encoding human TGR5. Cells were treated with candidate TGR5 activators and assessed for increased intercellular levels of cAMP.
TGR5-mediated cAMP generation was measured using a homogeneous time resolved fluorescence (HTRF) detection method (Cisbio). Test compounds were dissolved in DMSO to a final concentration of 10 mM. Serial 3-fold dilutions of the stock solution were made in DMSO, and these solutions were diluted 100-fold into Hanks Balanced Salt Solution supplemented with 10 mM HEPES pH 7.4, 0.003% Tween 20 and 0.5 mM isobutyl methylxanthine. Five microliters of diluted test compounds were added to wells of a black 384 well plate.
Cells grown overnight at 37° C./5% CO2 were harvested and resuspended in Hanks Balanced Salt Solution containing 10 mM HEPES to a concentration of […]. Five microliters (2500 cells) were dispensed into each well of the 384 well plate containing compound dilutions and incubated at 37° C. for 30 minutes. Each compound was tested in duplicate at 12 concentrations ranging from 0.05 nM to 10 μM.
Following incubation with test compounds, cAMP was detected through the successive addition of 5 μL each of cAMP labeled with the modified allophyocyanin dye d2 (cAMP-d2) and cryptate-labeled anti-cAMP in lysis buffer, and reading HTRF per the manufacturer's instructions.
A standard curve was used to convert the raw HTRF data into [cAMP]. The concentration of cAMP was plotted against log [test compound] and the resulting curves were fit to a 3-parameter logistical equation using GraphPad Prism to determine pEC50 (the negative log of the EC50) and the magnitude of the response.

Row | EC50 [nM] | Structure (SMILES)
1 | < 100 | CNC(=O)N(CCCCc1cc(Cl)c(COC2(c3cnccc3-c3ccccc3OC3CC3)CC2)cc1Cl)C[C@H](O)[C@@H](O)[C@H](O)[C@H](O)CO [Compound I-79]
2 | < 100 | Cc1ccc([C@@H](C)CCCC(=O)N(CCS(C)(=O)=O)C[C@H](O)[C@@H](O)[C@H](O)[C@H](O)CO)cc1CNC1(c2cnccc2-c2ccccc2OC2CC2)CC1 (single isomer, unassigned) [Compound I-367]
3 | < 100 | COCCN(CCCCc1cc(Cl)c(COC2(c3cnccc3-c3ccccc3OC3CC3)CC2)cc1C)C(=O)NC[C@H](O)[C@@H](O)[C@H](O)[C@H](O)CO [Compound I-116, 1-{4-[5-chloro-4-({1-[4-(2-cyclopropoxyphenyl)pyridin-3-yl]cyclopropoxy}methyl)-2-methylphenyl]butyl}-1-(2-methoxyethyl)-3-[(2S,3R,4R,5R)-2,3,4,5,6-pentahydroxyhexyl]urea]
4 | < 100 | Cc1ccc(SCCCCC(=O)NC[C@H](O)[C@@H](O)[C@H](O)[C@H](O)CO)nc1CNC1(c2cnccc2-c2ccccc2OC2CC2)CC1 [Compound I-645, 5-({6-[({1-[4-(2-cyclopropoxyphenyl)pyridin-3-yl]cyclopropyl}amino)methyl]-5-methylpyridin-2-yl}sulfanyl)-N-[(2S,3R,4R,5R)-2,3,4,5,6-pentahydroxyhexyl]pentanamide]
5 | < 100 | CC[C@@H](O)CN(C[C@H](O)[C@@H](O)[C@H](O)[C@H](O)CO)C(=O)CCCCc1cc(Cl)c(COC2(c3cnccc3-c3ccccc3OC3CC3)CC2)cc1Cl [Compound I-123, 5-[2,5-dichloro-4-({1-[4-(2-cyclopropoxyphenyl)pyridin-3-yl]cyclopropoxy}methyl)phenyl]-N-[(2R)-2-hydroxybutyl]-N-[(2S,3R,4R,5R)-2,3,4,5,6-pentahydroxyhexyl]pentanamide]
6 | < 100 | CC(CCCNC(=O)[C@@H](O)[C@@H](O)[C@H](O)[C@@H](O)CO)c1ccc(Cl)c(CNC2(c3cnccc3-c3ccccc3OC3CC3)CC2)c1 (stereo partly drawn) [Compound I-278, (2S,3S,4R,5S)-N-(4-{4-chloro-3-[({1-[4-(2-cyclopropoxyphenyl)pyridin-3-yl]cyclopropyl}amino)methyl]phenyl}pentyl)-2,3,4,5,6-pentahydroxyhexanamide]
7 | < 100 | Cc1ccc(C(C)CCCCNC(=O)[C@@H](O)[C@@H](O)[C@H](O)[C@@H](O)CO)cc1CNC1(c2cnccc2-c2ccccc2OC2CC2)CC1 (stereo partly drawn) [Compound I-300, (2S,3S,4R,5S)-N-(5-{3-[({1-[4-(2-cyclopropoxyphenyl)pyridin-3-yl]cyclopropyl}amino)methyl]-4-methylphenyl}hexyl)-2,3,4,5,6-pentahydroxyhexanamide]
8 | 126 to 1000 | Cc1ccc(SCCCN(CCS(C)(=O)=O)C[C@H](O)[C@@H](O)[C@H](O)[C@H](O)CO)cc1COC1(c2cnccc2-c2ccccc2OC2CC2)CC1 [Compound I-614, (2R,3R,4R,5S)-6-[(3-{[3-({1-[4-(2-cyclopropoxyphenyl)pyridin-3-yl]cyclopropoxy}methyl)-4-methylphenyl]sulfanyl}propyl)(2-methanesulfonylethyl)amino]hexane-1,2,3,4,5-pentol]
9 | < 100 | O=C(NCCCCC[S+]([O-])c1ccc(Cl)c(COC2(c3cnccc3-c3ccccc3OC3CC3)CC2)c1)NC[C@H](O)[C@@H](O)[C@H](O)[C@H](O)CO (stereo partly drawn) [Compound I-639, 1-{5-[4-chloro-3-({1-[4-(2-cyclopropoxyphenyl)pyridin-3-yl]cyclopropoxy}methyl)benzenesulfinyl]pentyl}-3-[(2S,3R,4R,5R)-2,3,4,5,6-pentahydroxyhexyl]urea]
10 | < 100 | C[C@H](CCCCNC(=O)NC[C@H](O)[C@@H](O)[C@H](O)[C@H](O)CO)c1ccc(Cl)c(CNC2(c3cnccc3-c3ccccc3OC3CC3)CC2)c1 (single isomer, unassigned) [Compound I-256]
11 | < 100 | CCS(=O)(=O)CCN(CCCCCc1cc(Cl)c(COC2(c3cnccc3-c3ccccc3OC3CC3)CC2)cc1Cl)C(=O)[C@@H](O)[C@@H](O)[C@H](O)[C@@H](O)CO (stereo in doubt) [Compound I-227, (2S,3S,4R,5S)-N-{5-[2,5-dichloro-4-({1-[4-(2-cyclopropoxyphenyl)pyridin-3-yl]cyclopropoxy}methyl)phenyl]pentyl}-N-[2-(ethanesulfonyl)ethyl]-2,3,4,5,6-pentahydroxyhexanamide]
12 | < 100 | N[C@@H]1[C@@H](O)[C@@H](O[C@@H]2[C@@H](O)[C@H](O[C@H]3O[C@H](CNC(=O)CCCCc4cc(Cl)c(COC5(c6cnccc6-c6ccccc6OC6CC6)CC5)cc4Cl)[C@@H](O)[C@H](O)[C@H]3O)[C@@H](N)C[C@H]2N)O[C@H](CO)[C@H]1O (stereo in doubt) [Compound I-181, N-{[(2R,3S,4S,5R,6R)-6-{[(1R,2R,3S,4R,6S)-4,6-diamino-3-{[(2S,3R,4S,5S,6R)-4-amino-3,5-dihydroxy-6-(hydroxymethyl)oxan-2-yl]oxy}-2-hydroxycyclohexyl]oxy}-3,4,5-trihydroxyoxan-2-yl]methyl}-5-[2,5-dichloro-4-({1-[4-(2-cyclopropoxyphenyl)pyridin-3-yl]cyclopropoxy}methyl)phenyl]pentanamide]
13 | < 100 | O=C([C@@H](O)[C@@H](O)[C@H](O)[C@@H](O)CO)N(CCCCc1cc(Cl)c(COC2(c3cnccc3-c3ccccc3OC3CC3)CC2)cc1Cl)CCOCCO [Compound I-85]
14 | < 100 | CSc1ccc(C)c(CNC2(c3cnccc3-c3ccccc3OC3CC3)CC2)n1 [Compound I-25, 1-[4-(2-cyclopropoxyphenyl)pyridin-3-yl]-N-{[3-methyl-6-(methylsulfanyl)pyridin-2-yl]methyl}cyclopropan-1-amine]
15 | < 100 | NC(=O)CCN(C[C@H](O)[C@@H](O)[C@H](O)[C@H](O)CO)C(=O)CCCCc1cc(Cl)c(COC2(c3cnccc3-c3ccccc3OC3CC3)CC2)cc1Cl [Compound I-223, N-(2-carbamoylethyl)-5-[2,5-dichloro-4-({1-[4-(2-cyclopropoxyphenyl)pyridin-3-yl]cyclopropoxy}methyl)phenyl]-N-[(2S,3R,4R,5R)-2,3,4,5,6-pentahydroxyhexyl]pentanamide]
16 | < 100 | CS(=O)(=O)NCCN(CCCCSc1ccc(Cl)c(CNC2(c3cnccc3-c3ccccc3OC3CC3)CC2)c1)C(=O)[C@@H](O)[C@@H](O)[C@H](O)[C@@H](O)CO [Compound I-571, (2S,3S,4R,5S)-N-[4-({4-chloro-3-[({1-[4-(2-cyclopropoxyphenyl)pyridin-3-yl]cyclopropyl}amino)methyl]phenyl}sulfanyl)butyl]-2,3,4,5,6-pentahydroxy-N-(2-methanesulfonamidoethyl) hexanamide]
17 | < 100 | CS(=O)(=O)CC(=O)N(CCCCc1cc(Cl)c(COC2(c3cnccc3-c3ccccc3OC3CC3)CC2)cc1Cl)C[C@H](O)[C@@H](O)[C@H](O)[C@H](O)CO [Compound I-202, N-{4-[2,5-dichloro-4-({1-[4-(2-cyclopropoxyphenyl)pyridin-3-yl]cyclopropoxy}methyl)phenyl]butyl}-2-methanesulfonyl-N-[(2S,3R,4R,5R)-2,3,4,5,6-pentahydroxyhexyl]acetamide]
18 | 126 to 1000 | Cc1ccc(CCCCC(=O)NC[C@H](O)[C@@H](O)[C@H](O)[C@H](O)CO)cc1CNC1(c2cnccc2-c2ccccc2OC2CC2)CC1 (stereo in doubt) [Compound I-237, 5-{3-[({1-[4-(2-cyclopropoxyphenyl)pyridin-3-yl]cyclopropyl}amino)methyl]-4-methylphenyl}-N-[(2S,3R,4R,5R)-2,3,4,5,6-pentahydroxyhexyl]pentanamide]
